This passage reports MIC results from DBAASP.

Holding throughout (test): ≥ marks a high value that may be exact or a test limit, other limits are often not marked, values filed in µg/mL are converted to µM
Assay [1] deals with Klebsiella pneumoniae ATCC 43816.
The test system of assay [2] is Staphylococcus aureus NCTC 12493.
Assay [3] deals with Enterococcus faecalis NCTC 12697.
Assay [4] has as its system Staphylococcus aureus NCTC 10788.
The subject of assay [5] is Pseudomonas aeruginosa ATCC 27853.
The test system of assay [6] is Escherichia coli NCTC 10418.
In assay [7] the test system is Candida albicans NCYC 1467.
For assay [8], the system named is Listeria monocytogenes EGD.
Assay [9] concerns Staphylococcus aureus ATCC 25923.
Assay [10] has as its system Escherichia coli ATCC 25922.
For assay [11], the system named is Staphylococcus epidermidis ATCC 12228.
The subject of assay [12] is Trichophyton rubrum ATCC 28189.
The test system of assay [13] is Candida albicans ATCC 90028.
In assay [14] the test system is Klebsiella pneumoniae ESBL 344/17.
The test system of assay [15] is Staphylococcus aureus 1399/17.
Assay [16] concerns Staphylococcus aureus SG511.
Assay [17] deals with Staphylococcus aureus ATCC 33591.
The test system of assay [18] is Escherichia coli ML-35p.
Assay [19] deals with Pseudomonas aeruginosa 522/17.
Assay [20] relates to Escherichia coli ESBL 521/17.
The test system of assay [21] is Acinetobacter baumannii 7226/16.
The test system of assay [22] is Candida albicans ATCC 24433.
Assay [23] relates to Candida parapsilosis ATCC 22019.
Assay [24] relates to Staphylococcus aureus.
Assay [25] has as its system Escherichia coli.

Each structure is given as a SMILES string. Converted amounts (≈) assume the structure as drawn.

On to `CC[C@H](C)[C@@H]1NC(=O)[C@H](C)NC(=O)[C@@H](NC(=O)[C@H](Cc2ccccc2)NC(=O)[C@@H](NC(=O)[C@H](CCCCN)NC(=O)[C@@H]2CCCN2C(=O)[C@H](CC(C)C)NC(=O)[C@H](Cc2ccccc2)NC(=O)[C@@H](N)CCCCN)[C@@H](C)CC)CSSC[C@@H](C(=O)O)NC(=O)[C@H](CCCCN)NC(=O)[C@H](CCCCN)NC(=O)[C@H]([C@@H](C)O)NC1=O` [KFLPKIFCAITKKC], for which the MIC – broadly, the smallest concentration in the dilution series that meets the test's criterion for growth inhibition – was not below 256 µM in assay [1]; 16 µM (≈ 26.2 µg/mL) in assay [2]; not below 512 µM in assay [3]; 8 µM (≈ 13.1 µg/mL) in [4]; 512 µM (≈ 839 µg/mL) in [5]; not below 32 µM in assay [6]. The same compound showed an MIC in assay [7] not below 128 µM.
For `CC[C@H](C)[C@@H]1NC(=O)[C@H](C)NC(=O)[C@@H](NC(=O)[C@H](Cc2ccccc2)NC(=O)[C@@H](NC(=O)[C@H](CCCCN)NC(=O)[C@H](Cc2c[nH]c3ccccc23)NC(=O)[C@@H]2CCCN2C(=O)[C@H](CC(C)C)NC(=O)[C@H](Cc2ccccc2)NC(=O)[C@@H](N)CCCCN)[C@@H](C)CC)CSSC[C@@H](C(=O)O)NC(=O)[C@H](CCCCN)NC(=O)[C@H](CCCCN)NC(=O)[C@H]([C@@H](C)O)NC1=O` [KFLPWKIFCAITKKC], the MIC is not below 64 µM in [1]; 8 µM (≈ 14.6 µg/mL) in assay [2]; not below 256 µM in assay [3]; 8 µM (≈ 14.6 µg/mL) in [4]; 128 µM (≈ 234 µg/mL) in [5]; 16 µM (≈ 29.2 µg/mL) in [6]. In assay [7], this compound came in with an MIC of 16 µM (≈ 29.2 µg/mL).
In the case of `CC[C@H](C)[C@H](NC(=O)[C@H](C)NC(=O)[C@H](CCCCN)NC(=O)[C@@H](NC(=O)[C@H](CC(C)C)NC(=O)[C@H](C)NC(=O)CNC(=O)[C@@H](NC(=O)[C@H](CCCCN)NC(=O)[C@H](Cc1ccccc1)NC(=O)[C@H](Cc1ccc(O)cc1)NC(=O)[C@H](CCCCN)NC(=O)[C@H](CCCCN)NC(=O)[C@H](CC(C)C)NC(=O)[C@@H](NC(=O)CNC(=O)[C@@H](NC(=O)[C@@H](N)CCCCN)[C@@H](C)CC)C(C)C)[C@@H](C)CC)[C@@H](C)CC)C(=O)N[C@H](C(=O)N[C@@H](CCCCN)C(N)=O)[C@@H](C)CC` [KIGVLKKYFKIGALIKAIIK], the MIC in assay [8] came out at 1 µM (≈ 2.24 µg/mL); in assay [9], 8 µM (≈ 18 µg/mL); in [10] it was 8 µM (≈ 18 µg/mL); in assay [5], 2 µM (≈ 4.49 µg/mL).
Regarding `CC[C@H](C)[C@H](NC(=O)[C@H](Cc1ccc(O)cc1)NC(=O)[C@H](CC(N)=O)NC(=O)[C@H](CC(N)=O)NC(=O)[C@H](Cc1ccccc1)NC(=O)[C@@H](N)CC(C)C)C(=O)N[C@H](C(=O)N[C@@H](C)C(=O)N[C@@H](C)C(=O)N[C@@H](CC(C)C)C(=O)N[C@@H](CCCCN)C(=O)N[C@@H](CC(C)C)C(=O)N[C@@H](CC(C)C)C(=O)N[C@@H](CCC(=O)O)C(=O)N[C@@H](CCCCN)C(=O)N[C@@H](CC(C)C)C(=O)N[C@@H](Cc1ccc(O)cc1)C(=O)N[C@@H](CCCCN)C(=O)N[C@H](C(N)=O)C(C)C)[C@@H](C)O` [LFNNYITAALKLLEKLYKV], the MIC in assay [11] is 5.33 µM (≈ 12 µg/mL); in [12], not below 32 µM; in assay [9] it was 4 µM (≈ 9.02 µg/mL); in assay [13], 8 µM (≈ 18 µg/mL).
As to `CC[C@H](C)[C@H](NC(=O)[C@H](CCCN=C(N)N)NC(=O)[C@@H](NC(=O)[C@H](Cc1ccccc1)NC(=O)[C@@H]1CCCN1C(=O)[C@@H]1CCCN1C(=O)[C@@H]1CCCN1C(=O)[C@H](Cc1cnc[nH]1)NC(=O)[C@@H](NC(=O)[C@H](CCCN=C(N)N)NC(=O)[C@H](CCCN=C(N)N)NC(=O)[C@H](Cc1ccccc1)NC(=O)[C@@H]1CCCN1C(=O)[C@H](CC(C)C)NC(=O)[C@H](CCCN=C(N)N)NC(=O)[C@H](Cc1ccccc1)NC(=O)[C@@H](N)CCCN=C(N)N)[C@@H](C)CC)C(C)C)C(=O)N[C@@H](Cc1cnc[nH]1)C(=O)N1CCC[C@H]1C(=O)N1CCC[C@H]1C(=O)N1CCC[C@H]1C(=O)N[C@@H](Cc1ccccc1)C(=O)N[C@@H](Cc1ccc(O)cc1)C(=O)N[C@@H](CCCN=C(N)N)C(=O)N[C@@H](CCCN=C(N)N)C(=O)N[C@@H](Cc1ccccc1)C(=O)N[C@@H](CC(C)C)C(=O)O` [RFRLPFRRIHPPPFVRIHPPPFYRRFL], the MIC in [14] was 8 µM (≈ 28.1 µg/mL); in assay [15] it was 8 µM (≈ 28.1 µg/mL); in [16], 0.25 µM (≈ 0.879 µg/mL); in assay [17] it was 16 µM (≈ 56.3 µg/mL); in assay [18], 2.83 µM (≈ 9.95 µg/mL); in [19], 16 µM (≈ 56.3 µg/mL). In addition, the values for the MIC in assay [20] and in assay [21] were 5.66 µM (≈ 19.9 µg/mL) and 4 µM (≈ 14.1 µg/mL), respectively.
Consider `CC[C@H](C)[C@H](NC(=O)[C@H](CCCN=C(N)N)NC(=O)[C@@H](NC(=O)[C@@H]1CCCN1C(=O)[C@@H]1CCCN1C(=O)[C@H](CCCN=C(N)N)NC(=O)[C@H](CCCN=C(N)N)NC(=O)[C@H](Cc1ccccc1)NC(=O)[C@@H]1CCCN1C(=O)[C@H](CC(C)C)NC(=O)[C@H](CCCN=C(N)N)NC(=O)[C@H](Cc1ccccc1)NC(=O)[C@@H](N)CCCN=C(N)N)[C@@H](C)CC)C(=O)N[C@@H](Cc1cnc[nH]1)C(=O)N1CCC[C@H]1C(=O)N1CCC[C@H]1C(=O)N1CCC[C@H]1C(=O)N[C@@H](Cc1ccccc1)C(=O)N[C@@H](Cc1ccc(O)cc1)C(N)=O` [RFRLPFRRPPIRIHPPPFY], for which the MIC is 8 µM (≈ 19.7 µg/mL) in assay [14]; not below 32 µM in assay [15]; 4 µM (≈ 9.85 µg/mL) in assay [16]; not below 64 µM in [17]; 4 µM (≈ 9.85 µg/mL) in assay [18]; not below 64 µM in assay [19]. For the same compound, the MIC amounted to 4 µM (≈ 9.85 µg/mL) in assay [20] and 16 µM (≈ 39.4 µg/mL) in [21].
Consider `CC[C@H](C)[C@H](NC(=O)[C@@H](N)CCCN=C(N)N)C(=O)N[C@@H](Cc1cnc[nH]1)C(=O)N1CCC[C@H]1C(=O)N1CCC[C@H]1C(=O)N1CCC[C@H]1C(=O)N[C@@H](Cc1ccccc1)C(=O)N[C@@H](Cc1ccc(O)cc1)C(=O)N1CCC[C@H]1C(=O)N1CCC[C@H]1C(=O)N[C@@H](Cc1ccccc1)C(=O)N[C@@H](CCCN=C(N)N)C(=O)N[C@@H](CCCN=C(N)N)C(=O)N[C@@H](Cc1ccccc1)C(=O)N[C@@H](CC(C)C)C(N)=O` [RIHPPPFYPPFRRFL], for which the MIC was not below 64 µM in assay [14]; not below 32 µM in [15]; 8 µM (≈ 15.5 µg/mL) in [16]; not below 90.5 µM in assay [17]; not below 64 µM in assay [18]; not below 128 µM in [19]. Besides, the minimal inhibitory concentration (MIC) in assay [20] and in [21] was not below 32 µM throughout.
Turning to `CC[C@H](C)[C@H](NC(=O)[C@H](CC(C)C)NC(=O)[C@H](CC(=O)O)NC(=O)[C@H](CO)NC(=O)[C@H](CCCN=C(N)N)NC(=O)[C@@H](N)CO)C(=O)N[C@H](C(=O)N[C@@H](Cc1cnc[nH]1)C(=O)N[C@@H](CCC(N)=O)C(=O)N[C@@H](CCCN=C(N)N)C(=O)N[C@@H](CC(C)C)C(=O)N[C@@H](Cc1ccccc1)C(N)=O)C(C)C` [SRSDLIVHQRLF], the MIC is not below 272 µM in [22]; not below 272 µM in assay [23]; not below 272 µM in [12]; more than 272 µM in assay [24]; more than 272 µM in [25].
On to `CC[C@H](C)[C@H](NC(=O)[C@H](CCCCN)NC(=O)[C@H](CCC(=O)O)NC(=O)[C@H](CO)NC(=O)[C@H](CCCN=C(N)N)NC(=O)[C@@H](N)CO)C(=O)N[C@H](C(=O)N[C@@H](Cc1cnc[nH]1)C(=O)N[C@@H](CCC(N)=O)C(=O)N[C@@H](CCCN=C(N)N)C(=O)N[C@@H](CC(C)C)C(=O)N[C@@H](Cc1ccccc1)C(N)=O)C(C)C` [SRSEKIVHQRLF], for which the MIC is not below 267 µM in assay [22]; not below 267 µM in assay [23]; not below 267 µM in assay [12]; more than 267 µM in [24]; more than 267 µM in assay [25].
